US20090318491A1 (priority 2006, published 2009)
Where two headings read alike, the source gives them in different places.

What was measured:
C57BL/6J male mice [1] = type: in vivo
Text: Subjects were 12-week old male C57BL/6J mice (The Jackson Laboratory, Bar Harbor Me.). Subjects were housed 5 per cage under standardized conditions (12:12 light cycle with lights on at 7:00 am) and were allowed at least 7 days of rest before testing. Food and water were available ad libitum.
Placebo cage-mate controls received an injection of saline.
The tail suspension test took place between 2:00 pm and 5:00 pm. […] Immediately after injection, each animal was placed in a clean cage and transferred to the testing room.
Approximately 1 cm from the end, each mouse's tail was taped (Scotch 35 Vinyl Electrical Tape) to a paperclip. Mice were suspended by the tail approximately 80 cm above the floor and the duration of immobility, defined as the absence of all movement except for those required for respiration, was recorded by an observer for 6 minutes. The animals were then returned to the holding room.

hα4β2 = biological target: T1, hα4β2 (Homo sapiens, UniProt P17787+P43681); details: HEK293 cells; cited from earlier work
T1 construct: expressed in transfected cells; host or cells: HEK293 cells
T1 sequence (P43681 29-627 limits assumed): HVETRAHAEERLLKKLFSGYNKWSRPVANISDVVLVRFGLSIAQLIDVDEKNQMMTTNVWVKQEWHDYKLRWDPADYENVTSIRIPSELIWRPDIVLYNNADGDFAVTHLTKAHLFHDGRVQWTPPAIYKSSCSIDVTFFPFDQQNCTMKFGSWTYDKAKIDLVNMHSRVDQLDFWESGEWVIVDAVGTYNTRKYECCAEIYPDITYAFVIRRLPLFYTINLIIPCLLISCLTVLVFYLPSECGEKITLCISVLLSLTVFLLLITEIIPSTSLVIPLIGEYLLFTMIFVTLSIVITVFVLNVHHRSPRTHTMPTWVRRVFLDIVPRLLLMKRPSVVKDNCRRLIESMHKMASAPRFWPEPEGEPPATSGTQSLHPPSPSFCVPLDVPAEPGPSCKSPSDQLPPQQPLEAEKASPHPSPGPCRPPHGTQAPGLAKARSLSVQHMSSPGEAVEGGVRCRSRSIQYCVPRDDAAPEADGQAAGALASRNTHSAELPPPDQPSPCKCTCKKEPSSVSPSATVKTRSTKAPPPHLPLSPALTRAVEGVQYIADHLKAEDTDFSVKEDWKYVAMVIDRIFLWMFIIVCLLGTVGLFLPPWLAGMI
T1 sequence (P17787 26-502): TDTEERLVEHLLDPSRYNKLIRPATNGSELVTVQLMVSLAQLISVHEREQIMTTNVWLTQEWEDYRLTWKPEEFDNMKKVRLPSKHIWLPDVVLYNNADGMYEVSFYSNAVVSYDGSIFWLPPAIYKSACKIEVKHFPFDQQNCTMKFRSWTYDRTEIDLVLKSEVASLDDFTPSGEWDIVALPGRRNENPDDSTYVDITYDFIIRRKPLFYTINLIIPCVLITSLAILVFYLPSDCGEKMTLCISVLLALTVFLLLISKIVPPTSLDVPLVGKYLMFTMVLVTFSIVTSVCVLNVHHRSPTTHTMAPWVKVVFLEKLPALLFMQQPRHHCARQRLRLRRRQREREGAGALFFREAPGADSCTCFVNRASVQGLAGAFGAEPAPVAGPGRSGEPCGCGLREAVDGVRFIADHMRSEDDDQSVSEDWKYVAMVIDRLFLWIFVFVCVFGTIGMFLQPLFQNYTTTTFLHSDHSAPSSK

α4β2* nAChR = biological target: T2, α4β2* nAChR (Rattus norvegicus, UniProt P09483+P12390); test: biochemical; type: binding
T2 construct: Frozen rat brains were thawed slowly before the preparation of the P2 rat brain membrane fraction; from tissue; host or cells: rat brain (without cerebellum and medulla), P2 membrane fraction
T2 sequence (P12390 25-500): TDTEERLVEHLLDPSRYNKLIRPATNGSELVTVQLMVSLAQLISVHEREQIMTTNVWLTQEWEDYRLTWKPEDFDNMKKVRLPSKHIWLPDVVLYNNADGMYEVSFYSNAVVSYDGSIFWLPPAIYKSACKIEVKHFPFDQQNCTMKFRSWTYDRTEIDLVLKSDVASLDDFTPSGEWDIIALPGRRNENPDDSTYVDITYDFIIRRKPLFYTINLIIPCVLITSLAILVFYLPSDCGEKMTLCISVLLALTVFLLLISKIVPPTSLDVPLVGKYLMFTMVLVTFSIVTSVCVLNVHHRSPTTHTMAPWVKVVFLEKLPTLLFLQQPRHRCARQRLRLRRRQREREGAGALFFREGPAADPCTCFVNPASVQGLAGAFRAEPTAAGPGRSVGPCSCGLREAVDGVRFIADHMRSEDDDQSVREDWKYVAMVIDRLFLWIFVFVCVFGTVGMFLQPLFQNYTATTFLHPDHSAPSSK
T2 sequence (P09483 31-630): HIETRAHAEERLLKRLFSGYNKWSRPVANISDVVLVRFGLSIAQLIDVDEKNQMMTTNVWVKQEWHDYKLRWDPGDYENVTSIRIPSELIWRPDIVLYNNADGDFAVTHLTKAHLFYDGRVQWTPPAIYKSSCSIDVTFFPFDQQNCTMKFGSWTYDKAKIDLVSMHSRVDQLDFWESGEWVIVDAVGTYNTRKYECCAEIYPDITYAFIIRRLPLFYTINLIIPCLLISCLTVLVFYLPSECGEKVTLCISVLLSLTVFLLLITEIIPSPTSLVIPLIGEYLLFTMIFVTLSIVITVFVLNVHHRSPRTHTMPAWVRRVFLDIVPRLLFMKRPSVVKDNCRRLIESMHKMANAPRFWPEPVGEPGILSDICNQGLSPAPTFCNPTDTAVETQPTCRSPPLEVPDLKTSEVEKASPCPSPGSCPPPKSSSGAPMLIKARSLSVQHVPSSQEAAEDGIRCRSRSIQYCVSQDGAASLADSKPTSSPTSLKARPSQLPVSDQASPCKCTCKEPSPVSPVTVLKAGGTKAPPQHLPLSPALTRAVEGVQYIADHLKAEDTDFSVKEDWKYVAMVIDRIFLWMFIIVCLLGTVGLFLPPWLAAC
Procedure: Preparation of Rat Brains
Frozen rat brains were thawed slowly before the preparation of the P2 rat brain membrane fraction (30-60 min on ice, afterwards at room temperature). […] After the determination of the wet weight (1.32 g on average), the brains were pressed into a pulp using a syringe and homogenised in saccharose buffer with a glass teflon homogenizator (Potter, 10 seconds). The tissue was then centrifuged (1,000×g, 20 min, 4° C.), the supernatant (S1) aspirated with a Pasteur pipette and stored on ice. The P1 pellet was re-suspended in saccharose buffer and the centrifugation was repeated. The supernatant S1′ was collected and added to the supernatant S1. The combined supernatants were centrifuged (25,000×g, 20 min, 4° C.), the supernatant S2 was removed and the pellet P2 collected and diluted with HSS-buffer. The buffer volume added was calculated on the basis of the wet weight in a ratio 1:2.
The final pellet was stored in aliquots at −80° C. On the day of the experiment, the P2 membrane fraction was thawed, diluted with HSS-buffer (30-fold volume), homogenised and centrifuged (35,000×g, 10 min, 4° C.). The collected pellet was suspended in HSS-buffer and used in the radioligand binding experiments.
Competition Assay Using (±)-[^3H]Epibatidine ([^3H]Epi) and Rat Brain P2-Fraction (α4β2*nAChR)
(§1) A dilution row of 6-9 concentrations of the test compound was prepared. Each assay sample, with a total volume of 500 μL contained 100 μL of the membrane protein (60 μg), 100 μL of (±)-[^3H]epibatidine (0.5 nM), 100 μL of HSS-buffer and 200 μL of the test compound Non-specific binding was determined in the presence of 300 μM (−)-nicotine tartrate salt. The samples were homogenised and incubated for 90 min at 22° C. The incubation was terminated by vacuum filtration through glass fibre filters pre-soaked in 1% poly(ethyleneimine). The filter were rinsed three times with TRIS-buffer, punched out and transferred into 4 mL scintillation vials. The scintillation vials were filled with scintillation cocktail (2 mL) and the radioactivity was measured using a liquid scintillation counter.
Assays were carried out in duplicate, triplicates or quadruplicates.
(§2) Biological evaluation of the compounds on various nicotinic actylcholine receptors (nAChRs) was conducted with cells described below. […] Functional agonist activity of the cytisines in cells using a fluorescence assay sensitive to changes in cytosolic calcium.

α3β4* nAChR = biological target: T3, α3β4* nAChR (Bos taurus, UniProt Q07263+Q8SPU6); test: biochemical; type: binding, calf
T3 construct: 100 μL of the calf adrenal membrane protein fraction (60-70 μg); from tissue; host or cells: calf adrenals, membrane fraction
T3 sequence (Q07263 22-495): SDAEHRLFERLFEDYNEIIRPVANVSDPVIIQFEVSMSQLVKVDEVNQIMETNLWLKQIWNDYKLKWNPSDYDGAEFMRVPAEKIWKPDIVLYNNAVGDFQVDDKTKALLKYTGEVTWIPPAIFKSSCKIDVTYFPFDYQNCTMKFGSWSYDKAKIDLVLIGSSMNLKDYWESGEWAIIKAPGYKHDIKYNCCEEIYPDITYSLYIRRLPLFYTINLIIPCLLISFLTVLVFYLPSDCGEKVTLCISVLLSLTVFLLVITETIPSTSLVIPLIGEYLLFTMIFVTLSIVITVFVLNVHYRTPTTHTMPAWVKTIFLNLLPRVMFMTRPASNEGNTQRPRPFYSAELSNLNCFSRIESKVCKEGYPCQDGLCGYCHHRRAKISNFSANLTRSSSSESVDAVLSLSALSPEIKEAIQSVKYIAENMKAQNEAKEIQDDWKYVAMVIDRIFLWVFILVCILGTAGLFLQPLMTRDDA
T3 sequence (Q8SPU6 20-496): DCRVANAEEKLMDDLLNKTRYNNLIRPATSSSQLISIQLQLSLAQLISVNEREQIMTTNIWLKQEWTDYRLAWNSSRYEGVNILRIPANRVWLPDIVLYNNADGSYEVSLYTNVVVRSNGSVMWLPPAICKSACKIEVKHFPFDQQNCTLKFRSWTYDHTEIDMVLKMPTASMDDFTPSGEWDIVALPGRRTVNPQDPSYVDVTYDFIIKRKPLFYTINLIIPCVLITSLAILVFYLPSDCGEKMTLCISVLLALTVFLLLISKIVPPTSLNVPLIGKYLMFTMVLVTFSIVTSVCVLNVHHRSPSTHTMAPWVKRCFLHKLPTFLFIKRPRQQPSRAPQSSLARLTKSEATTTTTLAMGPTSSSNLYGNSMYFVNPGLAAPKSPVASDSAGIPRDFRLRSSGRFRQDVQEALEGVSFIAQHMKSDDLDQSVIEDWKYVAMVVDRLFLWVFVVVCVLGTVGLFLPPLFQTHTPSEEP
Procedure: Preparation of Calf Adrenals
Frozen calf adrenals (−80° C.) were placed on ice for 30-60 min and allowed to thaw slowly before they were cut into small pieces. After determination of the wet weight (4-6 g), the tissue was homogenised in HSS-buffer (Ultraturrax at 750 rpm). The homogenate was centrifuged (30,000×g, 10 min, 4° C.), the pellets collected and washed. This procedure was repeated five times. The buffer volume used to re-suspend the pellets was calculated on the basis of the wet weight in a ratio 1:6.5.
The prepared tissues were stored in aliquots at −80° C. One hour before the experiments the tissues were slowly thawed, homogenised in HSS-buffer and centrifuged (25,000×g, 20 min, 4° C.). The pellets were re-suspended in fresh HSS-buffer and used for radioligand binding assays.
Competition Assay Using (±)-[^3H]Epibatidine ([^3H]Epi) and Calf Adrenals Membrane Fraction (α3β4*nAChR)
Each assay sample, with a total volume of 500 μL contained 200 μL of the test compound, 100 μL of (±)-[^3H]epibatidine, 100 μL of the calf adrenal membrane protein fraction (60-70 μg) and 100 μM of HSS-buffer. Non-specific binding was determined in the presence of 300 μM (−)-nicotine tartrate salt. The samples were homogenised and incubated for 90 min at 22° C. The incubation was terminated by vacuum filtration through glass fibre filters presoaked in 1% poly(ethyleneimine). The filters were rinsed three times with TRIS-buffer, punched out and transferred into 4 mL scintillation vials. The scintillation vials were filled with scintillation cocktail (2 mL) and the radioactivity was measured using a liquid scintillation counter.
Assays were carried out in duplicates, triplicates or quadruplicates

(α1)2β1γδ nAChR = biological target: T4, (α1)2β1γδ nAChR (Tetronarce californica, UniProt P02710+P02714+P02718); test: biochemical; type: binding, Torpedo californica
T4 construct: 100 μL of the Torpedo californica electroplax fraction (60-70 μg); from tissue; host or cells: Torpedo californica electric organ (electroplax) membranes
T4 sequence (P02710 25-461): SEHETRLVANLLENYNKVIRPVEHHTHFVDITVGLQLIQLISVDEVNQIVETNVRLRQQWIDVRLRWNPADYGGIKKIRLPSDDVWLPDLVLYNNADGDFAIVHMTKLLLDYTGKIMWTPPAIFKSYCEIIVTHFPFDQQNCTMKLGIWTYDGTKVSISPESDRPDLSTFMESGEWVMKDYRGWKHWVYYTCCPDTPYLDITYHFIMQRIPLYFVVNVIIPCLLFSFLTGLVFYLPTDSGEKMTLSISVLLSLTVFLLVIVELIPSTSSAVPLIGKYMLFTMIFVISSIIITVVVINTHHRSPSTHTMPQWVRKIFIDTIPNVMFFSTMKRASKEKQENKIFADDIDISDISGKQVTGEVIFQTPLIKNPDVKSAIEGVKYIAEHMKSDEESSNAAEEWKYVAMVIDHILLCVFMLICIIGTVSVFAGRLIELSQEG
T4 sequence (P02712 25-493, further chain): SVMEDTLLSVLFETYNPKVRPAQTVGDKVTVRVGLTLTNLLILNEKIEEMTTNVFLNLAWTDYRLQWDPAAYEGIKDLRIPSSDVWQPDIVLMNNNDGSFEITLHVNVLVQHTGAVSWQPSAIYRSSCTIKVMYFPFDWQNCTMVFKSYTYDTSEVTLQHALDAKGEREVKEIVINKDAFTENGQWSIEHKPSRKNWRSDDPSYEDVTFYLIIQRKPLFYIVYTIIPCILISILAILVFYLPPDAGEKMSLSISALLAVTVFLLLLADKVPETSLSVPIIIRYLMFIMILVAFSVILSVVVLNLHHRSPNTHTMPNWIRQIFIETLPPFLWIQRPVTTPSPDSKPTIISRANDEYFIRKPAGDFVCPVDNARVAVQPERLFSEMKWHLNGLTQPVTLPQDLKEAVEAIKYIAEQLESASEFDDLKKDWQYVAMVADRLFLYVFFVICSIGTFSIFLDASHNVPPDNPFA
T4 sequence (P02718 22-522): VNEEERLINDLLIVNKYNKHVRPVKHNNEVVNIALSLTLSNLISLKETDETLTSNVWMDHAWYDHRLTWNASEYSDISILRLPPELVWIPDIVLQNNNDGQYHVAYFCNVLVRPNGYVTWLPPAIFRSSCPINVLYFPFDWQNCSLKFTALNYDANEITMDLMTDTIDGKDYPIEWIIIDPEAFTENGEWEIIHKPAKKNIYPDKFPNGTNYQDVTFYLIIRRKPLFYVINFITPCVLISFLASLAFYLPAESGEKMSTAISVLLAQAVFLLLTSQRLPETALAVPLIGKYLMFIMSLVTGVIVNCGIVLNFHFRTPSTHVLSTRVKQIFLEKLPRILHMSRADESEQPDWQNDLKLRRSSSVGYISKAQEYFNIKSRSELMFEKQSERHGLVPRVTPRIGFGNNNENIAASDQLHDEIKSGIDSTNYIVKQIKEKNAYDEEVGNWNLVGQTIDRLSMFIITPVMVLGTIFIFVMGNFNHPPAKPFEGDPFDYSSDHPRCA
T4 sequence (P02714 18-506): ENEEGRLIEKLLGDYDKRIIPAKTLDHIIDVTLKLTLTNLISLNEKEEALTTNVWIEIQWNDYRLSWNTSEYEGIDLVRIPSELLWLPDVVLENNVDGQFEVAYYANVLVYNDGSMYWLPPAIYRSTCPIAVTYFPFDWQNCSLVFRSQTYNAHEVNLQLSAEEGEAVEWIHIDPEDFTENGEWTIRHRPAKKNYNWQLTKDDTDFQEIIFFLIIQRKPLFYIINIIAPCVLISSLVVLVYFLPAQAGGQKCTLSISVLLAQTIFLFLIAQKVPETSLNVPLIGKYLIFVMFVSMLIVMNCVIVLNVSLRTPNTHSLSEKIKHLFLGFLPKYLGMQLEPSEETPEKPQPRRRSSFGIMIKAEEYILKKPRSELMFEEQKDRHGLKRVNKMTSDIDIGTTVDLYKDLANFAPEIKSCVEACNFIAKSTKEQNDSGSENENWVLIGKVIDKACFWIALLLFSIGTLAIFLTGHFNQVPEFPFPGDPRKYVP
Procedure: Preparation of Torpedo californica Electroplax
Frozen samples of Torpedo californica electric organ (−80° C.) were placed on ice for 30-60 min and allowed to thaw slowly before the membrane preparation. The tissue was homogenised in an ice-cold HSS-buffer (Ultraturrax at 750 rpm) and centrifuged (30,000×g, 10 min, 4° C.). The pellets were collected, washed four times with HSS-buffer through re-homogenization and centrifugation at the same settings. The remaining pellets were collected, re-suspended in HSS and stored in aliquots at −80° C.
One hour before the experiments the tissues were slowly thawed, homogenised in HSS-buffer and centrifuged (25,000×g, 20 min, 4° C.). The pellets were re-suspended in fresh HSS-buffer and used for radioligand binding assays.
Competition Assay Using (±)-[^3H]Epibatidine ([^3H]Epi) and Torpedo californica Electroplax ((α1)2β1γδ nAChR)
as §1, with “μL contained 200 μL” for “μL contained 100 μL of the membrane protein (60 μg), 100 μL of (±)-[^3H]epibatidine (0.5 nM), 100 μL of HSS-buffer and 200 μL”, “the test compound, 100 μL of (±)-[^3H]epibatidine and 100 μL of the Torpedo californica electroplax fraction (60-70 μg). Non-specific binding” for “the test compound Non-specific binding”, “poly(ethyleneimine). The filters were rinsed” for “poly(ethyleneimine). The filter were rinsed”
Assays were carried out in duplicates, triplicate or quadruplicates.
as §2

C57BL/6J male mice [2] = details: acute i.p. injection of cytisine, FIG. 1
Procedure: C57BL/6J male mice, 34 months of age were used in these experiments. […] At 15 minutes, the mice were subject to a forced swim test (FST) and a recorded of immobility (time and patters) was provided. Control behavior was provided by testing locomotor activity at 20 minutes in an open field.

C57BL/6J male mice [3] = details: 21 days i.p. treatment, 24 hour food deprivation, FIG. 1
Procedure: A novelty-suppressed feeding test (NSFT) was conducted consisting of a 24 hour food deprivation, and a recording of the time to initiate a first feeding episode in an open-field, with controls for appetite and motivation (measure of weight loss and food intake).

c-fos = details: brain regions, FIG. 2
C57BL/6J male mice [4] = details: cytisine + 5HT1A/7 agonist 8OHDPAT

## O=c1c(-c2cccnc2)ccc2n1CC1CNCC2C1 (stereo not drawn) [compound 1]
C57BL/6J male mice [1]; acute i.p., […] (1.5 mg/kg elsewhere in the source), 45 minutes after injection, vs saline, p=0.014, FIG. 3
  mean duration of immobility in tail suspension test: significantly less mobile

## Nc1cccc(-c2ccc3c(c2)CC2CNCC3C2)c1 (stereo not drawn) [57m]
hα4β2
  Ki: 500 nM

## O=c1cccc2n1C[C@@H]1CNC[C@H]2C1 [compound 27, 1,2,3,4,5,6-hexahydro-1,5-methano-pyrido[1,2-a][1,5]diazocin-8-one]
α4β2* nAChR
  Ki: 0.122 nM
α3β4* nAChR
  Ki: 19 nM
(α1)2β1γδ nAChR
  Ki: 1300 nM
C57BL/6J male mice [1]; acute i.p. injection of cytisine, FIG. 1
  immobility in tail suspension test: generalized antidepressant-like profile
C57BL/6J male mice [1]; cytisine, doses lower than 1 mg/kg
  immobility in tail suspension test: did not yield any significant effects
C57BL/6J male mice [2]
  immobility in forced swim test: generalized antidepressant-like profile
C57BL/6J male mice [3]
  time to initiate first feeding episode in novelty-suppressed feeding test: generalized antidepressant-like profile
c-fos
  neuronal activity (c-fos immunostaining): Reductions of neuronal activity in the amygdala, hypothalamus and in the nucleus accumbens
C57BL/6J male mice [4]
  potentiation of cytisine effects: potentiation

## c1ccc(-c2ccc3c(c2)CC2CNCC3C2)cc1 (stereo not drawn) [57j]
hα4β2
  Ki: 500 nM
